Source: ChEMBL document CHEMBL5465560, “Selectivity Literature for EUbOPEN Chemogenomic Library” (2024)

What was measured:
[1] = target: Serine/threonine-protein kinase/endoribonuclease IRE1 (Homo sapiens) (UniProt O75460); assay: Selectivity interaction (KinomeScan (DiscoverX)) EUB0000092b ERN1; conditions: at 10 µM
[2] = target: Serine/threonine-protein kinase WNK2 (Homo sapiens) (UniProt Q9Y3S1); assay: Selectivity interaction (ProQinase) EUB0000171b WNK2
[3] = target: Cyclin-dependent kinase 19 (Homo sapiens) (UniProt Q9BWU1); assay: Selectivity interaction (KinomeScan (DiscoverX)) EUB0001079a CDK19; conditions: at 1 µM
Sequence of Cyclin-dependent kinase 19 (Homo sapiens) (Q9BWU1 whole entry): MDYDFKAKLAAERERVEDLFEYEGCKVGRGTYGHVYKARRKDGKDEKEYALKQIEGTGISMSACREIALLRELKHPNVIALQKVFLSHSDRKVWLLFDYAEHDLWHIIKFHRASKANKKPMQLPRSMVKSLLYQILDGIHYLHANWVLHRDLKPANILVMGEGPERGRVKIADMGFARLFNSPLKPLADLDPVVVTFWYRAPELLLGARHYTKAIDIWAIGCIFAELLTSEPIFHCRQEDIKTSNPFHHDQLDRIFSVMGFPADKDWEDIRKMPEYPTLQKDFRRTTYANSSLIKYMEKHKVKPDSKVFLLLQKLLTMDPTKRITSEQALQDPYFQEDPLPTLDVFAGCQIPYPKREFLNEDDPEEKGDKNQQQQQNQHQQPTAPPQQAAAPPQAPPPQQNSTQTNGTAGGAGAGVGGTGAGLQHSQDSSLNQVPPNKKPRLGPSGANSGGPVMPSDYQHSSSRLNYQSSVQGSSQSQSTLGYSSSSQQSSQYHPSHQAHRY

[4] = target: MAP kinase-interacting serine/threonine-protein kinase 2 (Homo sapiens, UniProt Q9HBH9); assay: Selectivity interaction (Kinase panel (Invitrogen)) EUB0000639a MKNK2; conditions: at 200 nM
Sequence of MAP kinase-interacting serine/threonine-protein kinase 2 (Q9HBH9 whole entry, looked up): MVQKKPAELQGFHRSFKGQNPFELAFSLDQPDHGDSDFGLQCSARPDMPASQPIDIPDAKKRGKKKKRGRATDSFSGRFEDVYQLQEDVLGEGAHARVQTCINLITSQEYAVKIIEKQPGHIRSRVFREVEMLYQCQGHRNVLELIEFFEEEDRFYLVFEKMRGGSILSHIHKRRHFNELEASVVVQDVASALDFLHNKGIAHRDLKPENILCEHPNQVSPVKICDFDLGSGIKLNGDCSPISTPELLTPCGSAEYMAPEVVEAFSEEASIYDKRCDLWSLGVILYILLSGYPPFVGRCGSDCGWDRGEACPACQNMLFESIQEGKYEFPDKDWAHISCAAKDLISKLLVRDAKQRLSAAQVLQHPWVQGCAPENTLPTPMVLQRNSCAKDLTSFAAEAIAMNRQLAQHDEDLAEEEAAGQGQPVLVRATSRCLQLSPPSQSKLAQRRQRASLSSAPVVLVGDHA

[5] = target: Rho-associated protein kinase 2 (Homo sapiens, UniProt O75116); assay: Selectivity interaction (KinomeScan (DiscoverX)) EUB0000607a ROCK2; conditions: at 10 µM
[6] = target: T1, Ephrin type-B receptor 4 (Homo sapiens) (UniProt P54760); assay: Selectivity interaction (KinomeScan (DiscoverX)) EUB0001049a EPHB4; conditions: at 1 µM
T1 sequence (whole entry): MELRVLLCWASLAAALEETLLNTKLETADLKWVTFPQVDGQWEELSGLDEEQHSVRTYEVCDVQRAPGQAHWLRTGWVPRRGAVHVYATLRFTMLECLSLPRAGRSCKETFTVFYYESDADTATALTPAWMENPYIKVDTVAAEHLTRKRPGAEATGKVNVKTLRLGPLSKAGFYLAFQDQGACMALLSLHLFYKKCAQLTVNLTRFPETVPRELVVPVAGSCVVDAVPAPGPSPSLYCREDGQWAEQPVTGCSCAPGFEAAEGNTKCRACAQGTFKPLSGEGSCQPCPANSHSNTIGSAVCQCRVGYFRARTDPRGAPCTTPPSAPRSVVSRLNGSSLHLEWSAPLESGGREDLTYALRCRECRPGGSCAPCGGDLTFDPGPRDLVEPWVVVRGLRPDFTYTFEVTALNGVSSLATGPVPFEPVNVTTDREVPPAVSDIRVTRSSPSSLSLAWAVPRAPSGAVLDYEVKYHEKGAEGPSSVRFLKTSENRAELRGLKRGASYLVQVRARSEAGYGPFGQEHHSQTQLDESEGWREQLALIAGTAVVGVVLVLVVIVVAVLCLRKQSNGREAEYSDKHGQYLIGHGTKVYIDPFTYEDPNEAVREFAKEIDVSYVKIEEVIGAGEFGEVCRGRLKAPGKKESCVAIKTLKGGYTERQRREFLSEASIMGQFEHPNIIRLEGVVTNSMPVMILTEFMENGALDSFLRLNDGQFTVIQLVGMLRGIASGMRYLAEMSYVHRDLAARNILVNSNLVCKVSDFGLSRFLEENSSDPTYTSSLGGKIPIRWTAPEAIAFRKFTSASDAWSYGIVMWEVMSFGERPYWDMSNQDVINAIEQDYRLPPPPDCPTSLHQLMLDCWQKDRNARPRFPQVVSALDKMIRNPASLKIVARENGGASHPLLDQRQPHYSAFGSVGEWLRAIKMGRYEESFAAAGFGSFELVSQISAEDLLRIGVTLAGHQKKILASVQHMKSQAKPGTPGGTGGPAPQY

[7] = target: T2, 5-hydroxytryptamine receptor 1A (Homo sapiens) (UniProt P08908); assay: Selectivity interaction (Panel of non-epigenetic targets (kinases, GPCRs, ion channels, and transporters, Eurofins) ) EUB0000271b HTR1A; conditions: at 1 µM
T2 sequence (whole entry): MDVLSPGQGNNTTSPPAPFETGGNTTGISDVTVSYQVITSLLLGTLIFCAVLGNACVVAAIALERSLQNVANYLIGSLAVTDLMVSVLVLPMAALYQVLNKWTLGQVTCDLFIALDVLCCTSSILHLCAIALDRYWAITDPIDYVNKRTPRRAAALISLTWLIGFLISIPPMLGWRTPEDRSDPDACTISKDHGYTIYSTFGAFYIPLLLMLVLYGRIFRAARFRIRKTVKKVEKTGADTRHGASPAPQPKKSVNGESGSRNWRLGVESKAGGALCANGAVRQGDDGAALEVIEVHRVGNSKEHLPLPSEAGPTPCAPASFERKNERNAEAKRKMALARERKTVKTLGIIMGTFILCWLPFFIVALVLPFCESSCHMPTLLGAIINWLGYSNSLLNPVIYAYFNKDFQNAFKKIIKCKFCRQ

[8] = target: T3, Phosphatidylinositol 4,5-bisphosphate 3-kinase catalytic subunit delta isoform (Homo sapiens) (UniProt O00329); assay: Selectivity interaction (KinomeScan (DiscoverX)) EUB0000618a PIK3CD; conditions: at 10 µM
T3 sequence (whole entry): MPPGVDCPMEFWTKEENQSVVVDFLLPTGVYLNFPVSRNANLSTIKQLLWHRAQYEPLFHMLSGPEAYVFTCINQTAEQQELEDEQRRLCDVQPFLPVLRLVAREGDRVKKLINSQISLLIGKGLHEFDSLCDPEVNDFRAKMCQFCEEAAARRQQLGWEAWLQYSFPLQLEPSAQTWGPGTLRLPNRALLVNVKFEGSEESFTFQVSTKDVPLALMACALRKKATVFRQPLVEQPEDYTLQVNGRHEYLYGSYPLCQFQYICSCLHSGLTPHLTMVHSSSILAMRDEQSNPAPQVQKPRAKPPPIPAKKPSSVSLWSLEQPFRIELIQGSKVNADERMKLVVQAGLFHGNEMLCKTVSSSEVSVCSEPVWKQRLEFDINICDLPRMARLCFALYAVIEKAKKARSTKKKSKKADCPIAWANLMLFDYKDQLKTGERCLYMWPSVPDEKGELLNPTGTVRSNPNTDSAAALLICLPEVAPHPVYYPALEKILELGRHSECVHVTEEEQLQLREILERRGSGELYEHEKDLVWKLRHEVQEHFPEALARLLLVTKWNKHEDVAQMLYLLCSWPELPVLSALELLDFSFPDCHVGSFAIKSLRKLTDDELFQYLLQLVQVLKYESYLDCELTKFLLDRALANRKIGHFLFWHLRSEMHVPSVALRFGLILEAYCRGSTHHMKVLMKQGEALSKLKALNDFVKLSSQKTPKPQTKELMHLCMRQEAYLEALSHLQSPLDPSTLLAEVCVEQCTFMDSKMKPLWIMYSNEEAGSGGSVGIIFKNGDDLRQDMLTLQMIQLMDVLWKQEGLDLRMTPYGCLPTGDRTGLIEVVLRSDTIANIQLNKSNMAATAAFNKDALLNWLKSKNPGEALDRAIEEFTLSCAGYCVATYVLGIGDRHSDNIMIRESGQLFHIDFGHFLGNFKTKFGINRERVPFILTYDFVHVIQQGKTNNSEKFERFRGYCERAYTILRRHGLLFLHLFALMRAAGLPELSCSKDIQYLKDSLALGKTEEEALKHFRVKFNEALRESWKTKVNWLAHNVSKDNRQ

[9] = target: Serine/threonine-protein kinase PLK3 (Homo sapiens, UniProt Q9H4B4); assay: Selectivity interaction (KinomeScan (DiscoverX)) EUB0001619a PLK3; conditions: at 1 µM
Sequence of Serine/threonine-protein kinase PLK3 (Q9H4B4 whole entry, looked up): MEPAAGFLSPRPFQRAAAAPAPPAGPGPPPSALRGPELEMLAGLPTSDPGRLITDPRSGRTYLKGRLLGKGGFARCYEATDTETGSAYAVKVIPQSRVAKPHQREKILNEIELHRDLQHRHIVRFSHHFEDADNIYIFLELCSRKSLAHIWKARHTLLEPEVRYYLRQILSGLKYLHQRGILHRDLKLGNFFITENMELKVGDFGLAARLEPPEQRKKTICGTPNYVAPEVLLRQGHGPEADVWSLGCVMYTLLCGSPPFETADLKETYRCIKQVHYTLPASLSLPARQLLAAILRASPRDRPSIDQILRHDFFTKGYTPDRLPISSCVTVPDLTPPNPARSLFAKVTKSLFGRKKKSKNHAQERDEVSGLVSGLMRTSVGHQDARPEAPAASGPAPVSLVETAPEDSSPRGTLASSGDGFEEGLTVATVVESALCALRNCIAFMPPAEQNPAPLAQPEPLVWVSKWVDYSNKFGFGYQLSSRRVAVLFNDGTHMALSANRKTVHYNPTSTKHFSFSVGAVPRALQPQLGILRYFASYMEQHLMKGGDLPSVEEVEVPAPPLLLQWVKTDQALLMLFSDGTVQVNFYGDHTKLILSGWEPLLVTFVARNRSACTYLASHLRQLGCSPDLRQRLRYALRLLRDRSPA

Sequence of Serine/threonine-protein kinase WNK2 (Homo sapiens) (Q9Y3S1 whole entry): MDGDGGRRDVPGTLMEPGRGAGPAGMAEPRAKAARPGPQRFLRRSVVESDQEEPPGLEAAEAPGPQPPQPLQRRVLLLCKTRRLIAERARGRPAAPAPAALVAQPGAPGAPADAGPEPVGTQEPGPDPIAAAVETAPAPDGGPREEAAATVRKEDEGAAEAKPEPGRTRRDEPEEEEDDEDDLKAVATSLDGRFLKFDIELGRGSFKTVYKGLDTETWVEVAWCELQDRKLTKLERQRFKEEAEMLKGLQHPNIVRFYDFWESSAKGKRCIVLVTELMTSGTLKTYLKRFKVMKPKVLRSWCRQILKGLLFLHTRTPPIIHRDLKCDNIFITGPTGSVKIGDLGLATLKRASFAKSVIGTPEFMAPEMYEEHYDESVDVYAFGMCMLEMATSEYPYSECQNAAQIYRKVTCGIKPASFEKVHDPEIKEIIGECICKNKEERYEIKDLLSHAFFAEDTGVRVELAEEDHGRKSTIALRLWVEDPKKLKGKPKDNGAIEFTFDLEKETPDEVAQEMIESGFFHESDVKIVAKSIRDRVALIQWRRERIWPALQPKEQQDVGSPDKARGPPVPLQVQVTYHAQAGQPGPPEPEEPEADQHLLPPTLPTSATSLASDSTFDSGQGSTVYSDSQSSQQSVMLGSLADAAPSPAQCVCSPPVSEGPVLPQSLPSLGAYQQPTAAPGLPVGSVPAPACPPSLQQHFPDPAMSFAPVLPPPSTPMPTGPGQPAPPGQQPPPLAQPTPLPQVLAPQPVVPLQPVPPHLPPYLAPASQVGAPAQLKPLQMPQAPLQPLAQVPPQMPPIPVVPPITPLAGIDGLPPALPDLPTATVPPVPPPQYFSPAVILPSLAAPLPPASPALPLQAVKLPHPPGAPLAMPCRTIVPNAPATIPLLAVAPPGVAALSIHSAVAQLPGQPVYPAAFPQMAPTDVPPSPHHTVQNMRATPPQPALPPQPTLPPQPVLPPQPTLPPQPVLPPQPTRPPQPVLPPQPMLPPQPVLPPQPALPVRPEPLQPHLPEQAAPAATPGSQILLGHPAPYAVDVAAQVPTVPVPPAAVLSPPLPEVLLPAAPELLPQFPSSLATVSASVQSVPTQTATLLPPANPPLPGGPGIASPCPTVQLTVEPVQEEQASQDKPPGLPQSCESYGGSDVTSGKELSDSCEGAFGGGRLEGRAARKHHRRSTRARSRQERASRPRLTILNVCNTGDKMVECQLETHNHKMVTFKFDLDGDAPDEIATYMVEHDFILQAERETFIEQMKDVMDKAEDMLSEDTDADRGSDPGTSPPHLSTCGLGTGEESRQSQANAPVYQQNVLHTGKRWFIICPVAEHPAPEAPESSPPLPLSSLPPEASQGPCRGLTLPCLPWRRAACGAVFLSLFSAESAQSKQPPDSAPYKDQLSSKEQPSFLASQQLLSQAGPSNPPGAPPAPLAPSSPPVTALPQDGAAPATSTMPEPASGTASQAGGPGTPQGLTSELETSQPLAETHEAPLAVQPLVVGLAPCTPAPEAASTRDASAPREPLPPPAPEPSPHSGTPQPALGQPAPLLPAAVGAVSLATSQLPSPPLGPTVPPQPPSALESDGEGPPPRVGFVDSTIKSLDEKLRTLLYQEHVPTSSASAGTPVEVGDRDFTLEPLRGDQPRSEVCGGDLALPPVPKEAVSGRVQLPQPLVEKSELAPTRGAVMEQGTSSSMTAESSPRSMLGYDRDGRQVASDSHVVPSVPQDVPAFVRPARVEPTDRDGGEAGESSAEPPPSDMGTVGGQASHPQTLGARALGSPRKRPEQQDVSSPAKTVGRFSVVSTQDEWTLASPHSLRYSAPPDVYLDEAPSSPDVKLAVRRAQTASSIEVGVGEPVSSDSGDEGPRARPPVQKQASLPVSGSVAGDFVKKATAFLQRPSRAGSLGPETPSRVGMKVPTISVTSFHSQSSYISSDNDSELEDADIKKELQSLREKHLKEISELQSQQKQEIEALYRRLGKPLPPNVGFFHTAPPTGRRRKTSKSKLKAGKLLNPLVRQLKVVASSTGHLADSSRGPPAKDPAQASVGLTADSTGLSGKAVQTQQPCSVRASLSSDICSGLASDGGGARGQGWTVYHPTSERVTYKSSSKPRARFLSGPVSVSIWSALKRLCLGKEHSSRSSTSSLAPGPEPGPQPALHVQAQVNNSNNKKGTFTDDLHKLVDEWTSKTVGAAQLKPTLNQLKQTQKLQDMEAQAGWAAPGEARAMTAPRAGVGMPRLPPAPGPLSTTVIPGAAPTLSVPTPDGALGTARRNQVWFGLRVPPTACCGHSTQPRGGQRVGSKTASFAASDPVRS
Sequence of Serine/threonine-protein kinase/endoribonuclease IRE1 (Homo sapiens) (O75460 19-977 limits assumed): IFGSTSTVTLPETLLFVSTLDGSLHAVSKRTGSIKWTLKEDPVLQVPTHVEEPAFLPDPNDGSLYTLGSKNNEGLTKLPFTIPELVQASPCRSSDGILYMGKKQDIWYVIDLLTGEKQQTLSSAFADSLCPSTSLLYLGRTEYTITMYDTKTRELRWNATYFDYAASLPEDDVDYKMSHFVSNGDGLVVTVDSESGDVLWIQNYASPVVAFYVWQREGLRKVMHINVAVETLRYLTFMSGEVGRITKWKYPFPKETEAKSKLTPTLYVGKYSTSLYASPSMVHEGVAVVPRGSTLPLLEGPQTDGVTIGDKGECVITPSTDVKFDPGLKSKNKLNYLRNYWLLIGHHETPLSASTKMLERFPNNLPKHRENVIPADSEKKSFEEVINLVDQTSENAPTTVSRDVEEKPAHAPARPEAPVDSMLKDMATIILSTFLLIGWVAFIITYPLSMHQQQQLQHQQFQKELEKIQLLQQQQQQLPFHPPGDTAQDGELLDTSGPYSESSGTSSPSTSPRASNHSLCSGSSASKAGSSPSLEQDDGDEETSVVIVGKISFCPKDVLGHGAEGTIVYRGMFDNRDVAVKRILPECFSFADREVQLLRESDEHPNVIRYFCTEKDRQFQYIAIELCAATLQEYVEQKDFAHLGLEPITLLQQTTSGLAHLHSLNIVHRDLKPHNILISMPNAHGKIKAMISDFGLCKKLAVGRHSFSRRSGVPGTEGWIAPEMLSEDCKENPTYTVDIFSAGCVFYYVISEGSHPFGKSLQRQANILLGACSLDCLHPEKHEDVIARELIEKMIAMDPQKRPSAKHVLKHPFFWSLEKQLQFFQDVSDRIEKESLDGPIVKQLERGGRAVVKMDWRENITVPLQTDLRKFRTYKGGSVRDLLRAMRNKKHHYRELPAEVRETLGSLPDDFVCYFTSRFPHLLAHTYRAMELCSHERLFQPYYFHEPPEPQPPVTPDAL

## CCC(=O)N1CCN(c2ccc(-n3c(=O)ccc4cnc5ccc(-c6cnc7ccccc7c6)cc5c43)cc2C(F)(F)F)CC1
[1]
  % of control: 100%

## C=CC(=O)Nc1cccc(C(=O)Nc2ccc(Nc3cc(-c4[nH]c(SC)nc4C)ccn3)cc2)c1
[2]; at 1 µM
  % of control: 98%
[2]; at 5 µM
  % of control: 78%

## Nc1cnc(N2CCc3cc(S(=O)(=O)Nc4c(F)cc(Cl)cc4F)cc(N4CCCC4=O)c32)nc1 [TP-020n]
[3]
  % of control: 100%

## CC[C@@H]1[C@H](F)C(=O)N[C@@H]1COc1nccc2cc(C(N)=O)c(OC)cc12 [ZIMLOVISERTIB]
[4]
  % of inhibition: 86%

## CNC(=O)Nc1ccc(-c2nc(N3CC4CCC(C3)O4)c3cnn(C4CCC5(CC4)OCCO5)c3n2)cc1
[5]
  % of control: 100%

## COc1cc(Nc2nc(C)cc(-c3cnn4nc(OC)ccc34)n2)cc(C(F)(F)F)c1
[6]
  % of control: 94%

## Cc1cc(C)cc([C@@H]2c3cc(C)ccc3NC(=O)CN2C(=O)c2ccc(Br)s2)c1
[7]
  % of inhibition: 5%

## O[C@H]1CC[C@H](Nc2ncc3nc(Nc4c(F)cc(F)cc4F)n([C@H]4CCOC4)c3n2)CC1
[8]
  % of control: 96%

## N#Cc1cccc(-c2c[nH]c3ncnc(N4CCOCC4)c23)c1
[9]
  % of control: 100%
